Test results published in patent US10525060B2, “HCK as a therapeutic target in MYD88 mutated diseases” (Dana-Farber Cancer Institute, Inc., priority 2016, dated 2020).
Read-outs that look alike come from different tables or passages of the source.

How the values were obtained:
FYN, SRC, YES = test: KiNativ profiling in WM cell lines; type: binding, Homo sapiens; conditions: 1 μM
SRC = biological target: T1, SRC (Homo sapiens, UniProt P12931); test: Kinase active-site inhibition assay (ATP-biotin probe, western blot) in BCWM.1 cells; type: binding; conditions: BCWM.1 WM cells, pre-treated 1 hour, various concentrations
T1 construct: endogenous in cells; host or cells: BCWM.1
Protocol: (§1) Cells then washed with PBS twice, and lysed with co-IP buffer (Invitrogen, Grand Island N.Y.). Two mg of protein from lysed cells was then incubated with […] of Pierce Streptavidin Magnetic Beads (Thermo Fisher Scientific, Cambridge Mass.) at 4° C. for 1 hour, then washed with TBST (0.1% Tween-20) thrice, and proteins eluted with SDS-PAGE sample buffer. […] Cells then were lysed and kinases were pulled down with ATP-biotin using Pierce™ Kinase Enrichment Kit (Thermo Fisher Scientific) per manufacturer's instructions. Kinases were eluted with SDS-PAGE sample buffer and detected by western blot.

HCK (pTyr^411) = biological target: T2, HCK (pTyr^411) (Homo sapiens, UniProt P08631); test: PhosFlow analysis of HCK Tyr411 phosphorylation; type: cell-based; conditions: MYD88 L265P WM and ABC DLBCL cell lines and primary WM LPC, 0.5 μM, 30 minutes
T2 construct: endogenous in cells; host or cells: BCWM.1 (A3); BCWM.1, MWCL-1, TMD-8 (A8); WM and ABC DLBCL lines and primary WM cells (A12)
Protocol: PhosFlow analysis was performed to delineate HCK phosphorylation. Cells were fixed with BD PhosFlow Fix Buffer I at 37° C. for 10 min. Cells were then centrifuged (300×g for 5 min) and washed twice with PhosFlow Perm/Wash Buffer I (BD Pharmingen). […] Following staining, cells were incubated in the dark for 30 min at room temperature, then washed thrice with BD PhosFlow Perm/Wash Buffer I, followed by anti-Rabbit IgG DyLight®-649 secondary antibody (Abcam), and incubated for an additional 20 min. Cells were then washed twice with BD PhosFlow Perm/Wash Buffer I and flow analysis performed using a BD™ FACSCanto II Flow Cytometer.
(§2) We also evaluated tumor cell viability by the CellTiter-Glo® Luminescent cell viability assay, and apoptosis by propidium iodide and Annexin V staining to determine if HCK inhibition contributed to WM cell death.

[1] = tested on: mutated MYD88 expressing WM and ABC DLBCL cell lines; test: CellTiter-Glo Luminescent cell viability assay; type: cell-based
Protocol: Apoptosis analysis was performed using Annexin V/Propidium iodide staining with the Apoptosis Detection Kit I (BD Pharmingen, San Jose Calif.). Cells (1×10^6/well) were treated in 24 well plates for 18 hours with inhibitors or corresponding controls. A minimum of 10,000 events were acquired using a BD™ FACSCanto II flow cytometer, and analyzed with BD FACS DIVA Software. For WM patient cells, BMMC (2×10^6/well) were treated with inhibitors, and CD19-APC-cy7 antibody (BD Pharmingen) was used with Annexin V antibody to analyze WM cell apoptosis. AlamarBlue® cell viability assay (Life Technologies, Carlsbad Calif.) was used to assess cell death following inducible HCK knockdown. For these experiments, transduced cells (1×10^5/ml) were cultured with tetracycline, and aliquoted every other day on days 1-11. […] Aliquoted plates were read in a SpectraMax M3 plate reader (Molecular Devices, Sunnyvale, Calif.). Relative cell survival was calculated as percentage of fluorescence relative to scrambled control. […] Luminescent measurement was performed using the 2104 Envision® Multilabel Reader (PerkinElmer Inc.).
as §2

[2] = tested on: MYD88^WT cell lines or healthy donor B-cells; test: Apoptosis by propidium iodide and Annexin V staining; type: cell-based; conditions: data not shown
Protocol: (§3) Apoptosis analysis was performed using Annexin V/Propidium iodide staining with the Apoptosis Detection Kit I (BD Pharmingen, San Jose Calif.). Cells (1×10^6/well) were treated in 24 well plates for 18 hours with inhibitors or corresponding controls. A minimum of 10,000 events were acquired using a BD™ FACSCanto II flow cytometer, and analyzed with BD FACS DIVA Software. For WM patient cells, BMMC (2×10^6/well) were treated with inhibitors, and CD19-APC-cy7 antibody (BD Pharmingen) was used with Annexin V antibody to analyze WM cell apoptosis. AlamarBlue® cell viability assay (Life Technologies, Carlsbad Calif.) was used to assess cell death following inducible HCK knockdown. For these experiments, transduced cells (1×10^5/ml) were cultured with tetracycline, and aliquoted every other day on days 1-11. AlamarBlue® solution ( 1/10 total volume) was added to cells and incubated for 2 hours. Aliquoted plates were read in a SpectraMax M3 plate reader (Molecular Devices, Sunnyvale, Calif.). Relative cell survival was calculated as percentage of fluorescence relative to scrambled control. The CellTiter-Glo® Luminescent cell viability assay (Promega, Madison Wis.) was used to assess the dose-response of inhibitors. Cells were seeded into 384 well plates with the EL406 Combination Washer Dispenser (BioTek Instruments, Inc.) and inhibitors injected into the cells culture media with the JANUS Automated Workstation (PerkinElmer Inc., Waltham Mass.). Cells were treated with serial diluted inhibitors […] for 72 hours at 37° C. Luminescent measurement was performed using the 2104 Envision® Multilabel Reader (PerkinElmer Inc.).
as §2

[3] = tested on: mutated MYD88 cell lines and primary WM cells; test: as above; type: cell-based; conditions: 0.5 μM, 18 hours
Protocol: as §3, §2

CD19+ bone marrow cells = test: Apoptosis by flow cytometry in cells from a WM patient resistant to ibrutinib; type: cell-based, human
Protocol: Apoptosis analysis was performed using Annexin V/Propidium iodide staining with the Apoptosis Detection Kit I (BD Pharmingen, San Jose Calif.). Cells (1×10^6/well) were treated in 24 well plates for 18 hours with inhibitors or corresponding controls. A minimum of 10,000 events were acquired using a BD™ FACSCanto II flow cytometer, and analyzed with BD FACS DIVA Software. For WM patient cells, BMMC (2×10^6/well) were treated with inhibitors, and CD19-APC-cy7 antibody (BD Pharmingen) was used with Annexin V antibody to analyze WM cell apoptosis. AlamarBlue® cell viability assay (Life Technologies, Carlsbad Calif.) was used to assess cell death following inducible HCK knockdown. For these experiments, transduced cells (1×10^5/ml) were cultured with tetracycline, and aliquoted every other day on days 1-11. AlamarBlue® solution ( 1/10 total volume) was added to cells and incubated for 2 hours. Aliquoted plates were read in a SpectraMax M3 plate reader (Molecular Devices, Sunnyvale, Calif.). Relative cell survival was calculated as percentage of fluorescence relative to scrambled control. The CellTiter-Glo® Luminescent cell viability assay (Promega, Madison Wis.) was used to assess the dose-response of inhibitors. […] Luminescent measurement was performed using the 2104 Envision® Multilabel Reader (PerkinElmer Inc.).

CD5+CD19+ PBMC cells = test: Apoptosis ex vivo in cells from a CLL patient resistant to ibrutinib; type: cell-based, human; conditions: DMSO 11.9%
LYN [4] = biological target: T3, LYN (Homo sapiens, UniProt P07948); test: Kinase active-site inhibition assay (ATP-biotin probe, western blot) in BCWM.1 cells; type: binding; parameters: endogenous in cells; host or cells: BCWM.1; conditions: BCWM.1 WM cells, pre-treated 1 hour, various concentrations
Protocol: as §1

LYN [5] = biological target: T3, LYN; test: KiNativ profiling in WM cell lines; type: binding; parameters: endogenous in cells; host or cells: BCWM.1 and MWCL-1 WM cell lines; conditions: for inhibition at 1 µM: read-out: KiNativ profiling, LYN inhibition (labeling site Lys1); for KiNativ profiling, LYN inhibition (labeling site Lys1): 1 μM
HCK [6] = biological target: T4, HCK (Homo sapiens, UniProt P08631); test: Kinase active-site inhibition assay (ATP-biotin probe, western blot) in BCWM.1 cells; type: binding; parameters: endogenous in cells; host or cells: BCWM.1 (A3); BCWM.1, MWCL-1, TMD-8 (A8); WM and ABC DLBCL lines and primary WM cells (A12); conditions: BCWM.1 WM cells, pre-treated 1 hour, various concentrations
Protocol: as §1

BTK = biological target: T5, BTK (Homo sapiens, UniProt Q06187); test: as above; type: binding; conditions: BCWM.1 WM cells, pre-treated 1 hour, various concentrations
T5 construct: endogenous in cells; host or cells: BCWM.1 (A4); BCWM.1, MWCL-1, TMD-8 (A7)
Protocol: as §1

BCWM.1 WM cells = test: Dose dependent tumor cell survival of BCWM.1 cells transduced with BTK or HCK vectors; type: cell-based
From the text: as §2

TMD-8 ABC DLBCL cells = test: Cell viability of TMD-8 cells transfected with BTK vectors; type: cell-based; conditions: FIG. 8B
HCK [7] = biological target: T4, HCK; conditions: read-out: IC50 kinase activity of HCK; cited from earlier work

Row | SMILES | KiNativ profiling, FYN, SRC, YES (labeling site Activation Loop) (FYN, SRC, YES; BCWM.1 cells) | KiNativ profiling, FYN, SRC, YES (labeling site Activation Loop) (FYN, SRC, YES; MWCL-1 cells) | blocking of ATP binding to SRC (SRC) | change in HCK Tyr411 phosphorylation (HCK (pTyr^411)) | apoptotic activity [2] | apoptotic changes [3] | blocking of ATP binding to LYN (LYN [4]) | inhibition at 1 µM (LYN [5]; BCWM.1 cells) | inhibition at 1 µM (LYN [5]; MWCL-1 cells) | blocking of ATP binding to HCK (HCK [6]) | also measured
1 | CN1CCN([C@H]2CC[C@H](n3cc(-c4ccc(Oc5ccccc5)cc4)c4c(N)ncnc43)CC2)CC1 [A419259] | >99 | 98.1 | blocked ATP binding to the SRC family members SRC and LYN | reduced HCK Tyr^411 phosphorylation | little or no apoptotic activity | Increased apoptotic changes | blocked ATP binding to the SRC family members SRC and LYN | > 99% | > 99% | blocked ATP binding to HCK in a dose-dependent manner | dose-dependent viability ([1]; 72 hours, more pronounced in mutated MYD88 than MYD88 WT cells): Decreased dose-dependent viability; apoptotic cells (CD19+ bone marrow cells; 0.1 μM): 20.8%; apoptotic cells (CD19+ bone marrow cells; 0.5 μM): 24.6%; apoptotic cells (CD5+CD19+ PBMC cells; 0.1 μM): 18.4%; apoptotic cells (CD5+CD19+ PBMC cells; 0.5 μM): 25.6%
2 | C=CC(=O)Nc1cccc(Nc2nc(Nc3ccc(OCCOC)cc3)ncc2F)c1 [CC-292] | 10.5 | −0.4 | did not block ATP binding to either SRC or LYN | little or no impact on HCK Tyr^411 phosphorylation | little or no apoptotic activity | little or no impact on apoptosis | did not block ATP binding to either SRC or LYN | – | – | not CC-292 blocked ATP binding to HCK | blocking of ATP binding to BTK (BTK): blocked ATP binding to BTK; higher EC50 in viability assay ([1]; mutated MYD88 cell lines except OCI-Ly3, 72 hours): > 1 log-fold; potency for tumor cell killing in BTK^C481S expressing cells versus wild-type BTK or control vector (BCWM.1 WM cells; BCWM.1 WM cells, FIG. 8A): reduced potency; change in tumor cell killing with HCK^T333M or wild-type HCK (BCWM.1 WM cells; BCWM.1 transduced to express HCK^T333M or wild-type HCK): No substantial change in tumor cell killing; potency for tumor cell killing in BTK^C481S expressing cells versus wild-type BTK or control vector (TMD-8 ABC DLBCL cells): decreased the potency; IC50 (HCK [7]): 14.6 µM; KiNativ profiling, LYN inhibition (labeling site Lys1) (LYN [5]; BCWM.1 cells): 15.7; KiNativ profiling, LYN inhibition (labeling site Lys1) (LYN [5]; MWCL-1 cells): 14.2
3 | C=CC(=O)N1CCC[C@@H](n2nc(-c3ccc(Oc4ccccc4)cc3)c3c(N)ncnc32)C1 [Ibrutinib] | – | – | – | – | – | – | – | 60.5% | 80.6% | – | –
